“And” between values parts separate entries of the source, which are not always exact repeats. Identical values can stand only once. Like-named read-outs stand apart in the source and are kept apart here.
Key:
[1] = tested on: T1, Plasmodium falciparum Dd2-attB-ScDHODH (transgenic line expressing yeast DHODH), asexual blood stages; experiment: organism not typed; design: replicate k of 3 (each line is one of three independent assays; the three lines of one compound and parasite line follow each other); conditions: 72 h, n = 1; for AC50: read-out: Individual replicates / Log AC50 (converted)
T1 construct: Dd2-attB-ScDHODH, the transgenic line that expresses yeast DHODH
Summary of the method: (§1)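 The transgenic line overexpresses fumarate-dependent yeast DHODH, bypassing parasite mETC and ubiquinone-dependent parasite DHODH. A subset of compounds was run in three independent assays on both lines, and line differences were tested by two-sided Student's t-test.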

[2] = tested on: T2, Plasmodium falciparum Dd2-attB (parental line), asexual blood stages; experiment: microbe, parasite or virus in culture; design: species or system P. falciparum Dd2-attB in human erythrocytes; SYBR Green-I proliferation assay, Dd2-attB parental line, asexual blood stages; conditions: Plasmodium falciparum, DD2, Erythrocyte, 72 h, read-out: Calculated / Average Log AC50 (M), mean of replicates, 72 h (converted)
T2 construct: Dd2-attB, the isogenic parental line

[3] = tested on: T2, Plasmodium falciparum Dd2-attB (parental line), asexual blood stages; experiment: microbe, parasite or virus in culture; design: replicate k of 3 (each line is one of three independent assays; the three lines of one compound and parasite line follow each other); conditions: n = 1; for Individual replicates / Log AC50 (M): 72 h; for AC50: Plasmodium falciparum, DD2, 72 h, read-out: Individual replicates / Log AC50 (converted)
Summary of the method: as §1

[4] = tested on: luciferase-expressing P. berghei liver stage parasites in HepG2 cells; experiment: Inhibition of liver-stage development assay (ILSDA), Method 2 (WRAIR, 96-well); assay type: cell-based, Plasmodium berghei; conditions: P. berghei liver stage, Method 2, dose response
[5] = tested on: Plasmodium falciparum Dd2 asexual blood stage parasites; experiment: microbe, parasite or virus in culture; design: species or system Plasmodium falciparum Dd2 in human erythrocytes; single determination (one 11-point concentration-response curve); conditions: Plasmodium falciparum, DD2, Erythrocyte, 72 h; read-out: AC50
[6] = tested on: P. berghei-ANKA-GFP-LucCON liver stage parasites in HepG2-A16-CD81EGFP cells; experiment: P. berghei liver stage Pb-Luc assay, Method 1 (UCSD, 1536-well); assay type: cell-based, Plasmodium berghei; conditions: Method 1

Row | SMILES | Individual replicates / Log AC50 (M) [1] | AC50 [2] | Individual replicates / Log AC50 (M) [3] | AC50 [1] | AC50 [3] | Activity direction (Decrease / Inactive) [4] | AC50 [5] | Max Resp (signal direction of the dose response) ([6]; Decrease = decreasing P. berghei viability with dose, Increase = increasing signal, Inactive = no dose response) | AC50 ([6]; Hill fit, 50% of maximum activity response, read-out: AC50) | Log AC50 (M) ([6]; log10 of molar AC50 from Hill fit) | AC50 ([6]; Plasmodium berghei, Hill fit, 50% of maximum activity response, read-out: AC50) | AC50 ([6]; Plasmodium berghei, log10 of molar AC50 from Hill fit, read-out: Log AC50 (converted))
1 | CN(C)CCCOc1ccc(-c2cc(O)c3ncccc3c2)cn1 [NCGC00247741-01] | -4.7486 Log AC50 (M) and -5.0486 Log AC50 (M) | 9.65e-06 M | -4.7986 Log AC50 (M) and -5.1486 Log AC50 (M) and -5.0986 Log AC50 (M) |  |  |  |  |  |  |  |  | 
2 | O=C(O)c1ccc(O)c2ncc(NCC3CCCN(CCc4ccccc4)C3)cc12 (stereo not shown) [NCGC00241759-01] | -4.8486 Log AC50 (M) | 1.04e-05 M | -5.0486 Log AC50 (M) | 8.94 µM | 7.1 µM |  |  |  |  |  |  | 
3 | CCCN1C(CC(C)C)=N[S+](=O)([O-])c2cc(NC(=O)c3ccccc3)ccc21 [NCGC00510420-01] | -6.0486 Log AC50 (M) and -5.5486 Log AC50 (M) and -5.8486 Log AC50 (M) | 4.48e-07 M | -6.5486 Log AC50 (M) and -6.1986 Log AC50 (M) and -6.2986 Log AC50 (M) |  |  |  |  |  |  |  |  | 
4 | COC(=O)c1ccc(O)c2ncc(N3CCN(C)CC3)cc12 [NCGC00241034-01] | -5.2486 Log AC50 (M) and -5.2986 Log AC50 (M) and -4.8486 Log AC50 (M) | 6.09e-06 M | -5.2986 Log AC50 (M) and -5.0486 Log AC50 (M) |  | 5.03 µM |  |  |  |  |  |  | 
5 | O=C(NCCCN1CCCCC1)c1cccc(-c2cc(O)c3ncccc3c2)c1 [NCGC00244529-01] | -4.7986 Log AC50 (M) | 1.04e-05 M | -5.0486 Log AC50 (M) | 8.94 µM | 14.2 µM |  |  |  |  |  |  | 
6 | O=C(Cc1ccc(O)cc1)N1CC(CNc2ccccc2)C2(C1)CN(c1ccccc1)C2 (stereo not shown) [NCGC00415859-01] | -6.4873 Log AC50 (M) and -6.7373 Log AC50 (M) and -6.8873 Log AC50 (M) | 1.63e-07 M | -6.8373 Log AC50 (M) and -6.9373 Log AC50 (M) and -6.5873 Log AC50 (M) |  |  | Inactive | 0.243 µM | Decrease | 0.631 µM | -6.200 M | 0.447 µM | 0.447 µM
7 | O=C(c1cccc(-c2cc(O)c3ncccc3c2)c1)N1CCN(CCCN2CCOCC2)CC1 [NCGC00247764-01] |  | 2e-05 M |  | 17.8 µM | 17.8 µM |  |  |  |  |  |  | 
8 | CN(Cc1ccco1)Cc1ccc(O)c2ncccc12 [NCGC00183374-01] | -4.7986 Log AC50 (M) | 1.47e-05 M |  | 12.6 µM | 8.94 µM |  |  |  |  |  |  | 
9 | Oc1ccc(CNc2nccc3ccccc23)c2cccnc12 [NCGC00241025-01] | -5.2486 Log AC50 (M) and -4.7486 Log AC50 (M) | 7.67e-06 M | -5.2486 Log AC50 (M) and -4.8986 Log AC50 (M) and -5.1986 Log AC50 (M) |  |  |  |  |  |  |  |  | 
10 | COc1ccc(NCc2cccn2-c2nnc(N3CCC(C)CC3)s2)c(OC)c1 [NCGC00127038-02] | -4.7486 Log AC50 (M) and -4.7986 Log AC50 (M) | 1.26e-05 M | -4.9986 Log AC50 (M) | 14.2 µM | 17.8 µM |  |  |  |  |  |  | 
11 | O=C(Nc1ccc(O)c2ncccc12)c1ccccc1F [NCGC00184884-01] | -4.8486 Log AC50 (M) and -5.0986 Log AC50 (M) | 7.38e-06 M | -5.2486 Log AC50 (M) and -4.9486 Log AC50 (M) |  | 6.33 µM |  |  |  |  |  |  | 
12 | Cc1ccc(NC(=O)C(N[S+](=O)([O-])c2ccc3c(c2)CCC(=O)N3)c2ccccc2)cc1C (stereo not shown) [NCGC00110290-01] |  | 1.59e-05 M |  | 8.94 µM | 17.8 µM |  |  |  |  |  |  | 
13 | COc1ccc(-n2ncc(C(=O)N3CCc4ccccc4C3)c2C2CCN(C(=O)OC(C)(C)C)CC2)cc1 [NCGC00127123-02] | -4.7986 Log AC50 (M) and -4.8486 Log AC50 (M) | 7.97e-06 M | -5.2486 Log AC50 (M) and -4.9986 Log AC50 (M) | 14.2 µM | 8.94 µM |  |  |  |  |  |  | 
14 | CN(C)CCNC(=O)c1ccc(-c2cc(O)c3ncccc3c2)cc1 [NCGC00247749-01] |  | 1.13e-05 M | -4.9986 Log AC50 (M) and -5.0486 Log AC50 (M) | 17.8 µM | 15.9 µM |  |  |  |  |  |  | 

Reference: PMC7822874, “Chemoprotective antimalarials identified through quantitative high-throughput screening of Plasmodium blood and liver stage parasites” (Scientific Reports, 2021)
